Results reported in patent US12721832B2, “Anti-senescence plant polyphenol drug downregulating senescence-related secretory phenotype and use thereof” (BYHEALTH CO., LTD., priority 2021, dated 2026).

Tests used:
PSC27 cells [1] = experiment: CCK8 cell viability of proliferating and senescent PSC27 under increasing PCC1; assay type: cell-based, human
Description: P value at each PCC1 concentration is the significant difference after comparison between CTRL and BLEO groups. **, P<0.01; ***, P<0.001; ****, P<0.0001.
Pharmacodynamic analysis was conducted on a natural product library (BY-HEALTH) with a total of 41 components, most of which were medicinal plant extracts and had anti-senescence potential. Each product was diluted to a 96-well plate according to a certain concentration gradient, and the density was 5000 cells per well. The medium uses DMEM, and the working concentration of natural product (or compound) is generally controlled at 1 μM to 1 mM. After 3-7 days of drug treatment, cell proliferation was measured with CCK-8 Cell Counting Kit (based on WST-8 principle, Vazyme), and cell apoptosis activity was determined with Caspase 3/7 Activity Kit (Promega).

senescent PSC27 cells = experiment: SA-β-Gal staining of PSC27 under increasing PCC1 concentration; assay type: cell-based, human
Description: Senescence-associated (3-galactosidase (SA-β-Gal) staining was performed following a previously reported procedure (Debacq-Chainiaux et al., 2009). Briefly, cells in culture dishes were washed with PBS and fixed at room temperature. Cells were fixed in 2% formaldehyde and 0.2% glutaraldehyde for 3 minutes. SA-β-Gal was used for staining with freshly prepared staining solution overnight at 37° C. Images were taken on the next day and the percentage of positive cells per unit area was calculated.

[2] = system: cancer cells in the lesion; experiment: DNA damage and apoptosis in tumor lesions (LCM, caspase 3 cleavage IHC); assay type: in vivo, mice
Text: The signals of Caspase 3 cleaved […] in the lesion of each group of mice were in sharp contrast. Scale bar, 200 μm.
To investigate mechanisms directly supporting this senescence-associated pattern with expression and reversal of SASP in MIT-administered mice, we dissected tumors in animals treated with both drugs 7 days after the first PCC1 administration, and the time point of 7 days after administration was selected mainly because drug-resistant clones had not yet formed in cancer cells in the lesion at this time. […] As supporting evidence, when PCC1 was applied during treatment, caspase 3 cleavage activity was increased, which was a typical hallmark of apoptosis (FIG. 29).

aged C57BL/6 mice [3] = experiment: Physical ability test in aged mice; assay type: in vivo; conditions: males and females, PCC1 biweekly
Description: N=5. ^, P>0.05; **, P<0.01.
N=5/group. , P>0.05; ***, P<0.001.
All testing began on day 5 after the last placebo or drug treatment. Maximum walking speed was assessed using the accelerated RotaRod System (TSE System, Chesterfiled, Mo.). The mice were trained on the RotaRod for 3 days at speeds of 4, 6 and 8 r.p.m, lasted for 200 seconds on the 1st, 2nd and 3rd days. On the test day, the mice were placed on the RotaRod, and the test was performed starting at a speed of 4 r.p.m. The rotation speed was accelerated from 4 to 40 r.p.m at intervals of 5 minutes. When the mice fell off the RotaRod, the speed was recorded. The final results were averaged from 3 or 4 trials and normalized to baseline speed. […]
Forelimb grip strength (N) was measured using a Grip Strength Meter (Columbus Instruments, Columbus, Ohio), and the results were averaged from more than 10 trials. […] The mice were only allowed to grasp the wire with their forelimbs, and the hang time was normalized to body weight and expressed as hang duration (sec) x body weight (g). […] Their daily activity and food intake were monitored for 24 h (12 hours of light and 12 hours of dark) by a Comprehensive Laboratory Animal Monitoring System (CLAMS). […] The distance was recorded after the test, and the total work (KJ) was calculated with the following formula: mass (kg)×g (9.8 m/s^2)×distance (m)×sin) (5°).

PSC27 cells [4] = experiment: Flow cytometry of apoptosis of PSC27; assay type: cell-based, human
Text: Q2, distribution area of early apoptotic cells; Q3, distribution area of late apoptotic cells.

[5] = system: senescent cells in tumor tissue; experiment: SA-β-Gal staining of tumor tissue in PC3/PSC27 tumor-bearing mice; assay type: in vivo; conditions: PCC1 administered to MIT-treated animals
Description: Representative pictures after SA-β-Gal staining. Scale bar, 100 μm.
A P>0.05; **, P<0.01; ***, P<0.001.
In a preclinical treatment trial, subcutaneously transplanted mice were fed with a standard experimental diet, after 2 weeks chemotherapy drugs mitoxantrone (MIT, dose: 0.2 mg/kg) and/or procyanidin C1 (PCC1) (500 μl, dose: 10 mg/kg) via intraperitoneal administration. The time points were: the former was administrated on the first day of the 3rd, 5th and 7th weeks, and the latter was administrated on the first day of the 5th and 7th weeks. A total of 3 cycles of MIT administration were carried out throughout the course of treatment, and each cycle lasted for 2 weeks. After the course of treatment, mouse tumors were harvested for volume measurement and histological analysis. Each mouse cumulatively received 0.6 mg/kg body weight of MIT and 30 mg/kg body weight of PCC1. In order to cause systemic expression of SASP factor induced by chemotherapy, MIT was administered to mice through intravenous infusion according to the above steps and sequence, but the dose was reduced to 0.1 mg/kg body weight/each time (the cumulative dose of MIT received in the whole course of treatment was 0.3 mg/kg body weight) to reduce drug-related toxicity. […]

aged C57BL/6 mice [6] = experiment: Post-mortem pathological examination of aged mice; assay type: in vivo; conditions: end of life
Description: The researchers checked the cages daily and removed dead mice from the cages. Within 24 hours of animal death, cadavers (abdominal cavity, thoracic cavity, and skull) were opened and kept separately in 10% formalin for at least 7 days. Decomposed or destroyed bodies were excluded. The preserved cadavers were transported to the dedicated autopsy site for pathological examination. Tumor burden (sum of different types of tumors per mouse), disease burden (sum of different histopathological changes in major organs per mouse), severity of each lesion and inflammation (lymphocyte infiltration) were assessed.

## Oc1cc(O)c2c(c1)O[C@H](c1ccc(O)c(O)c1)[C@H](O)[C@H]2c1c(O)cc(O)c2c1O[C@H](c1ccc(O)c(O)c1)[C@H](O)[C@H]2c1c(O)cc(O)c2c1O[C@H](c1ccc(O)c(O)c1)[C@H](O)C2 [PCC1, procyanidin C1]
PSC27 cells [1]; proliferating PSC27, 200 μM PCC1
  survival of proliferating cells: not significantly reduced
PSC27 cells [1]; senescent PSC27, 200 μM PCC1
  percentage of surviving senescent cells: approximately 10%
PSC27 cells [1]; senescent vs control proliferating cells, CCK8
  concentration from which significant death of senescent cells is induced: 50 µM
Senescent PSC27 cells; 150 μM PCC1, 80% staining positive without drug
  senescent cells remaining: 20%
Senescent PSC27 cells; 200 μM PCC1
  killing effect at 200 μM versus 150 μM: not further enhanced
Senescent PSC27 cells; senescent PSC27
  concentration at which killing effect reached a threshold: 150 µM
Senescent PSC27 cells; senescent PSC27, 0-200 μM
  concentration from which senescent cells are eliminated (SA-β-Gal staining): 50 µM
[2]; PCC1 administered to MIT-treated animals
  indices of DNA damage or apoptosis: significantly enhanced
[2]; PCC1 applied during MIT treatment
  caspase 3 cleavage activity: increased
[2]; single agent vs placebo, 7 days after first PCC1 administration
  degree of DNA damage and apoptosis: could not induce DNA damage or cause apoptosis
Aged C57BL/6 mice [3]
  physical function during the last 2 months of life vs vehicle: did not show a significant decrease
PSC27 cells [4]
  change of proliferating cells: not obvious
  proportion of apoptosis in senescent PSC27 cells: significantly increased
  viability of senescent PSC27 cells: significantly reduced
[5]
  senescent cells within lesions of chemotherapeutic (MIT) animals: substantially depleted most senescent cells
Aged C57BL/6 mice [6]
  prevalence of several age-related diseases and tumor burden at autopsy vs vehicle: did not show statistical differences
